In US20250120927A1, “CNDP2 MODULATORS AND METHODS FOR THEIR USE” (Metabolon Inc., priority 2023, published 2025) one finds IC50 data, which are given here for 45 molecules.

Sequence of CNDP2 (Q96KP4 whole entry): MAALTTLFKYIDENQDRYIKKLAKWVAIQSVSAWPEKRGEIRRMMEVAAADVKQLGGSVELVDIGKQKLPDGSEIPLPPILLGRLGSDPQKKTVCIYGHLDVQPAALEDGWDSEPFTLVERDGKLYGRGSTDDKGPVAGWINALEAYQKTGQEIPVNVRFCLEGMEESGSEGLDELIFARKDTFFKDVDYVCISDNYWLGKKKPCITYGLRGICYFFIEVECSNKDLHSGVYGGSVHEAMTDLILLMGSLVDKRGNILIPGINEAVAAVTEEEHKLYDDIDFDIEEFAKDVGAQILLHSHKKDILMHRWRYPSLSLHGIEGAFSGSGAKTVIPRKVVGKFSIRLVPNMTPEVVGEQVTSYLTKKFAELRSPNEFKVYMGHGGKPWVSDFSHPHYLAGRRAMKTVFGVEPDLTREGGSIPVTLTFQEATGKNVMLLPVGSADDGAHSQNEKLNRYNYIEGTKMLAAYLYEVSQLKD

The assay deals with CNDP2 (Homo sapiens (Human), UniProt Q96KP4). As to the kind of experiment: CNDP2 enzyme inhibition assay (Met-His hydrolysis, free histidine by o-phthaldialdehyde fluorescence), dose-response. In kind it is biochemical. The conditions noted are these: 50 nM purified CNDP2 (Sino Biological), 1 mM Met-His substrate, 30 minutes at 37° C.; TABLE 1. As for the experimental part:
To identify optimal conditions for identifying novel inhibitors of CNDP2, enzyme assays were performed with varied sources of purified enzyme, concentrations of enzyme, peptide substrates, concentrations of peptide substrates and metal cofactors. […] The reaction mixture was incubated for 30 minutes at 37° C. before it was quenched with an equal volume of 1% TCA. Free histidine was quantified after derivatization with a fluorophore (o-phthaldialdehyde from Sigma-Aldrich, excitation 340 nm, emission 460 nm). The reaction was conducted in an automation-friendly format to meet future screening throughput demands. A histidine titration standard curve was also included to enable conversion of fluorescence signal to molar concentration of histidine released by the hydrolysis reaction and to ensure the linearity of the fluorescence signal vs. free histidine.
Compounds of Formula (I) disclosed herein were screened for potency in inhibiting CNDP2 enzyme activity in a dose-response experiment. Bestatin was included with each batch of test molecules as a benchmark for assay quality control.
With `N[C@H](Cc1ccccc1)[C@H](O)C(=O)N[C@@H](Cc1ccc(F)cc1)C(=O)O` [Compound 1, (S)-2-((2S,3R)-3-amino-2-hydroxy-4-phenylbutanamido)-3-(4-fluorophenyl)propanoic acid], the IC50 was no less than 1000 nM.

Molecule `N[C@H](Cc1ccccc1)[C@H](O)C(=O)NC(C(=O)O)c1ccccc1` (stereo partly drawn) [Compound 3, 2-[[(2S,3R)-3-amino-2-hydroxy-4-phenyl-butanoyl]amino]-2-phenyl-acetic acid] displayed an IC50 of no less than 1000 nM.

In the case of `N[C@H](Cc1ccccc1)[C@H](O)C(=O)N[C@H](C(=O)O)C1CCCC1` [Compound 4, (2S)-2-[[(2S,3R)-3-amino-2-hydroxy-4-phenyl-butanoyl]amino]-2-cyclopentyl-acetic acid], the IC50 lay within 100 to 1000 nM.

Take `N[C@H](Cc1ccccc1)[C@H](O)C(=O)N[C@H](C(=O)O)C1CCCCC1` [Compound 5, (2S)-2-[[(2S,3R)-3-amino-2-hydroxy-4-phenyl-butanoyl]amino]-2-cyclohexyl-acetic acid]: the half-inhibitory concentration (IC50) is 100 to 1000 nM.

As for `COc1ccccc1[C@H](NC(=O)[C@@H](O)[C@H](N)Cc1ccccc1)C(=O)O` [Compound 8, (2S)-2-[[(2S,3R)-3-amino-2-hydroxy-4-phenyl-butanoyl]amino]-2-(2-methoxyphenyl)acetic acid], the IC50 is no less than 1000 nM.

`N[C@H](Cc1ccccc1)[C@H](O)C(=O)N[C@H](C(=O)O)c1cccnc1` [Compound 9, (2S)-2-[[(2S,3R)-3-amino-2-hydroxy-4-phenyl-butanoyl]amino]-2-(3-pyridyl)acetic acid] had an IC50 of no less than 1000 nM.

The molecule `N[C@H](Cc1ccccc1)[C@H](O)C(=O)NC(C(=O)O)c1cccc(C(F)(F)F)c1` (stereo partly drawn) [Compound 10, 2-[[(2S,3R)-3-amino-2-hydroxy-4-phenyl-butanoyl]amino]-2-[3-(trifluoromethyl)phenyl]acetic acid] displayed an IC50 of less than 100 nM.

The molecule `N[C@H](Cc1ccccc1)[C@H](O)C(=O)N[C@@H](Cc1ccccc1C(F)(F)F)C(=O)O` [Compound 11, 2-[[(2S,3R)-3-amino-2-hydroxy-4-phenyl-butanoyl]amino]-3-[2-(trifluoromethyl)phenyl]propanoic acid] yielded an IC50 of no less than 1000 nM.

On to `CC(c1ccccc1)[C@H](NC(=O)[C@@H](O)[C@H](N)Cc1ccccc1)C(=O)O` (stereo partly drawn) [Compound 14, 2-[[(2S,3R)-3-amino-2-hydroxy-4-phenyl-butanoyl]amino]-3-phenyl-butanoic acid], for which the IC50 was no less than 1000 nM.

The molecule `N[C@H](Cc1ccccc1)[C@H](O)C(=O)NC1(C(=O)O)CCCC1` [Compound 15, 1-[[(2S,3R)-3-amino-2-hydroxy-4-phenyl-butanoyl]amino]cyclopentane carboxylic acid] came in with an IC50 of no less than 1000 nM.

The molecule `N[C@H](Cc1ccccc1)[C@H](O)C(=O)NC(Cc1ccc(C(F)(F)F)cc1)C(=O)O` (stereo partly drawn) [Compound 16, 2-[[(2S,3R)-3-amino-2-hydroxy-4-phenyl-butanoyl]amino]-3-[4-(trifluoromethyl)phenyl]propanoic acid] yielded an IC50 of 100 to 1000 nM.

Turning to `N[C@H](Cc1ccccc1)[C@H](O)C(=O)NC(CC1CCCC1)C(=O)O` (stereo partly drawn) [Compound 17, 2-[[(2S,3R)-3-amino-2-hydroxy-4-phenyl-butanoyl]amino]-3-cyclopentyl-propanoic acid], the IC50 is less than 100 nM.

`COc1ccc(C[C@H](NC(=O)[C@@H](O)[C@H](N)Cc2ccccc2)C(=O)O)cc1` [Compound 18, (2S)-2-[[(2S,3R)-3-amino-2-hydroxy-4-phenyl-butanoyl]amino]-3-(4-methoxyphenyl)propanoic acid] gave an IC50 of no less than 1000 nM.

In turn, `N[C@H](Cc1ccccc1)[C@H](O)C(=O)N[C@@H](Cc1ccc(O)cc1)C(=O)O` [Compound 19, 2-[[(2S,3R)-3-amino-2-hydroxy-4-phenyl-butanoyl]amino]-3-(4-hydroxyphenyl)propanoic acid] registered an IC50 of no less than 1000 nM.

`N[C@H](Cc1ccccc1)[C@H](O)C(=O)N[C@H](C(=O)O)C1CCC1` [Compound 20, (2S)-2-[[(2S,3R)-3-amino-2-hydroxy-4-phenyl-butanoyl]amino]-2-cyclobutyl-acetic acid] showed an IC50 of no less than 1000 nM.

For `N[C@H](Cc1ccccc1)[C@H](O)C(=O)N[C@H](C(=O)O)C1CCOCC1` [Compound 21, 2-[[(2S,3R)-3-amino-2-hydroxy-4-phenyl-butanoyl]amino]-2-tetrahydropyran-4-yl-acetic acid], the IC50 is no less than 1000 nM.

`N[C@H](Cc1ccccc1)[C@H](O)C(=O)NC(CC1CC(F)(F)C1)C(=O)O` (stereo partly drawn) [Compound 22, 2-[[(2S,3R)-3-amino-2-hydroxy-4-phenyl-butanoyl]amino]-3-(3,3-difluorocyclobutyl)propanoic acid] yielded an IC50 of no less than 1000 nM.

In turn, `N[C@H](Cc1ccccc1)[C@H](O)C(=O)NC(CC1CCOCC1)C(=O)O` (stereo partly drawn) [Compound 23, 2-[[(2S,3R)-3-amino-2-hydroxy-4-phenyl-butanoyl]amino]-3-tetrahydropyran-4-yl-propanoic acid] had a half-inhibitory concentration (IC50) of less than 100 nM.

In the case of `CCC(c1ccccc1)C(NC(=O)[C@@H](O)[C@H](N)Cc1ccccc1)C(=O)O` (stereo partly drawn) [Compound 24, 2-[[(2S,3R)-3-amino-2-hydroxy-4-phenyl-butanoyl]amino]-3-phenyl-pentanoic acid], the IC50 was no less than 1000 nM.

Take `N[C@H](Cc1ccccc1)[C@H](O)C(=O)N[C@@H](Cc1ccc(Br)cc1)C(=O)O` [Compound 25, 2-[[(2S,3R)-3-amino-2-hydroxy-4-phenyl-butanoyl]amino]-3-(4-bromophenyl)propanoic acid]: the IC50 is less than 100 nM.

Regarding `N[C@H](Cc1ccccc1)[C@H](O)C(=O)N[C@@H](Cc1ccccc1Br)C(=O)O` [Compound 26, 2-[[(2S,3R)-3-amino-2-hydroxy-4-phenyl-butanoyl]amino]-3-(2-bromophenyl)propanoic acid], the IC50 is no less than 1000 nM.

The molecule `N[C@H](Cc1ccccc1)[C@H](O)C(=O)NC(C(=O)O)c1ccccc1C(F)(F)F` (stereo partly drawn) [Compound 27] came in with an IC50 of no less than 1000 nM.

Regarding `N[C@H](Cc1ccccc1)[C@H](O)C(=O)NC(C(=O)O)C1CCNCC1` (stereo partly drawn) [Compound 29], the IC50 was no less than 1000 nM.

For the molecule `N[C@H](Cc1ccccc1)[C@H](O)C(=O)NC(C(=O)O)C1CCCCCC1` (stereo partly drawn) [Compound 30], the IC50 was in the range of 100 to 1000 nM.

Regarding `N[C@H](Cc1ccccc1)[C@H](O)C(=O)N[C@H](C(=O)O)c1cccc(OC(F)(F)F)c1` [Compound 31, (S)-2-((2S,3R)-3-amino-2-hydroxy-4-phenylbutanamido)-2-(3-(trifluoromethoxy)phenyl)acetic acid], the IC50 was less than 100 nM.

`COc1cccc(C(NC(=O)[C@@H](O)[C@H](N)Cc2ccccc2)C(=O)O)c1` (stereo partly drawn) [Compound 32] gave an IC50 of no less than 1000 nM.

For the molecule `N[C@H](Cc1ccccc1)[C@H](O)C(=O)N[C@@H](Cc1cccc(Br)c1)C(=O)O` [Compound 33], the IC50 was no less than 1000 nM.

Molecule `N[C@H](Cc1ccccc1)[C@H](O)C(=O)N[C@H](C(=O)O)C1CCC(F)(F)CC1` [Compound 34] displayed an IC50 of 100 to 1000 nM.

In turn, `N[C@H](Cc1ccccc1)[C@H](O)C(=O)N[C@@H](C(=O)O)c1cccc(C(F)(F)F)c1` [Compound 35] registered an IC50 of no less than 1000 nM.

`N[C@H](Cc1ccccc1)[C@H](O)C(=O)N[C@H](C(=O)O)c1cccc(C(F)(F)F)c1` [Compound 36] yielded an IC50 of less than 100 nM.

As for `CC1(C)CC(C(NC(=O)[C@@H](O)[C@H](N)Cc2ccccc2)C(=O)O)CCO1` (stereo partly drawn) [Compound 38], the IC50 is no less than 1000 nM.

`CC(C)C[C@H](NC(=O)[C@@H](O)[C@H](N)Cc1ccc(Br)cc1)C(=O)O` [Compound 39]: the IC50 was no less than 1000 nM.

Regarding `CC(C)C[C@H](NC(=O)[C@@H](O)[C@H](N)Cc1ccccc1Br)C(=O)O` [Compound 40], the IC50 was no less than 1000 nM.

In turn, `CC(C)C[C@H](NC(=O)[C@@H](O)[C@H](N)Cc1cccc(Br)c1)C(=O)O` [Compound 41] showed an IC50 of no less than 1000 nM.

In the case of `NC(=O)C(NC(=O)[C@@H](O)[C@H](N)Cc1ccccc1)c1cccc(C(F)(F)F)c1` (stereo partly drawn) [Compound 42], the IC50 was no less than 1000 nM.

As to `N[C@H](Cc1ccccc1)[C@H](O)C(=O)NC(c1cccc(C(F)(F)F)c1)c1nnn[nH]1` (stereo partly drawn) [Compound 43], the IC50 was no less than 1000 nM.

In turn, `NC(=O)[C@@H](NC(=O)[C@@H](O)[C@H](N)Cc1ccccc1)c1cccc(OC(F)(F)F)c1` [Compound 44] came in with an IC50 of no less than 1000 nM.

`N[C@H](Cc1ccccc1)[C@H](O)C(=O)NC(C(=O)NO)c1cccc(C(F)(F)F)c1` (stereo partly drawn) [Compound 45] gave an IC50 of 100 to 1000 nM.

Molecule `N[C@H](Cc1ccc(Cl)cc1)[C@H](O)C(=O)N[C@H](C(=O)O)c1cccc(C(F)(F)F)c1` [Compound 49] displayed an IC50 of less than 100 nM.

In turn, `N[C@H](Cc1ccccc1)[C@H](O)C(=O)N[C@H](C(=O)NO)c1cccc(OC(F)(F)F)c1` [Compound 52] had an IC50 of no less than 1000 nM.

`N[C@H](Cc1ccccc1)[C@H](O)C(=O)N[C@H](C(=O)NO)c1cccc(OC(F)(F)F)c1` [Compound 53] yielded an IC50 of 100 to 1000 nM.

As to `CS(=O)(=O)NC(=O)C(NC(=O)[C@@H](O)[C@H](N)Cc1ccccc1)c1cccc(C(F)(F)F)c1` (stereo partly drawn) [Compound 55], the IC50 was no less than 1000 nM.

Regarding `N[C@H](Cc1ccccc1)[C@H](O)C(=O)NC(c1cccc(C(F)(F)F)c1)c1n[nH]c(=O)o1` (stereo partly drawn) [Compound 56], the IC50 is less than 100 nM.

Molecule `NC(Cc1cccc(OC(F)(F)F)c1)C(O)C(=O)N[C@H](C(=O)O)c1cccc(OC(F)(F)F)c1` (stereo partly drawn) [Compound 57] displayed an IC50 of no less than 1000 nM.

Molecule `N[C@H](Cc1ccccc1OC(F)(F)F)[C@H](O)C(=O)N[C@H](C(=O)O)c1cccc(OC(F)(F)F)c1` [Compound 61] yielded an IC50 of 100 to 1000 nM.
